This test has as its target T1, human GluN1/GluN2B NMDA receptors (Homo sapiens, UniProt Q13224).
T1 construct: expressed in transfected cells
Nature of the test: Calcium flux (FLIPR) assay on cloned human NR1/GluN2B ion channels expressed in mammalian cells (standard and HTS variants). The settings on record: cells expressing human GluN1/GluN2B, glutamate and glycine co-agonists. The class given is cell-based. As to the method: Effects of Test Articles on Cloned Human NR1/GuN2B Ion Channels Expressed in Mammalian Cells
NMDA receptors are ion channels that are highly permeable to Ca^2+ ions, rendering it possible to monitor NMDA receptor function using cell-based calcium flux assay. In this assay, co-agonists glutamate and glycine are added to cells heterologously expressing human GluN1/GluN2B NMDA receptors to initiate cellular Ca^2+ influx. The time course of the changes in intracellular calcium is measured using a fluorescent dye and a FLIPR (Fluorometric Imaging Plate Reader) device.
Twenty-four hours before measurements, the expression of the NMDA receptors in the stable cell line is induced with Tet-On inducible system in the presence of a non-selective NMDA receptor blocker. On the day of the experiment, cell culture media is carefully washed, and the cells are loaded with Calcium 5 Dye Kit (Molecular Devices) in dye loading buffer containing 137 mM NaCl, 4 mM KCl, 2 mM CaCl2, 0.5 mM MgCl2 (standard assay) or 1.5 mM MgCl2 (HTS assay), 10 mM HEPES and 5 mM D-glucose; pH 7.4. After 1 h incubation at the room temperature, the dye is washed away with the assay buffer (137 mM NaCl (standard assay) or 150 mM (HTS assay), 4 mM KCl (standard assay) or 3 mM (HTS assay), 2 mM CaCl2), 0.01 mM EDTA, 10 mM HEPES and 5 mM D-glucose; pH 7.4) In the FLIPR TETRA reader, various concentrations of the test compounds are added to the cells for 5 min while fluorescence is monitored to detect potential agonist activity. Next, co-agonists, glutamate and glycine are added for another 5 minutes. The concentration of glutamate corresponding to ˜EC40 (standard assay) or EC40 (HTS assay) is used to maximize the assay's signal window and ability to detect NMDA receptor antagonists and negative allosteric modulators. A saturating concentration (10 μM) of glycine is also present in the assay. A non-selective NMDA receptor antagonist, (+)MK-801 is used as a positive control for antagonist activity. The fluorescent signal in the presence of test compounds is quantified and normalized to the signal defined by the appropriate control wells.

Structures are written as SMILES. Where a name gives a salt, the structure may show the parent alone.

T1 sequence (Q13224 27-1484, other chains not shown): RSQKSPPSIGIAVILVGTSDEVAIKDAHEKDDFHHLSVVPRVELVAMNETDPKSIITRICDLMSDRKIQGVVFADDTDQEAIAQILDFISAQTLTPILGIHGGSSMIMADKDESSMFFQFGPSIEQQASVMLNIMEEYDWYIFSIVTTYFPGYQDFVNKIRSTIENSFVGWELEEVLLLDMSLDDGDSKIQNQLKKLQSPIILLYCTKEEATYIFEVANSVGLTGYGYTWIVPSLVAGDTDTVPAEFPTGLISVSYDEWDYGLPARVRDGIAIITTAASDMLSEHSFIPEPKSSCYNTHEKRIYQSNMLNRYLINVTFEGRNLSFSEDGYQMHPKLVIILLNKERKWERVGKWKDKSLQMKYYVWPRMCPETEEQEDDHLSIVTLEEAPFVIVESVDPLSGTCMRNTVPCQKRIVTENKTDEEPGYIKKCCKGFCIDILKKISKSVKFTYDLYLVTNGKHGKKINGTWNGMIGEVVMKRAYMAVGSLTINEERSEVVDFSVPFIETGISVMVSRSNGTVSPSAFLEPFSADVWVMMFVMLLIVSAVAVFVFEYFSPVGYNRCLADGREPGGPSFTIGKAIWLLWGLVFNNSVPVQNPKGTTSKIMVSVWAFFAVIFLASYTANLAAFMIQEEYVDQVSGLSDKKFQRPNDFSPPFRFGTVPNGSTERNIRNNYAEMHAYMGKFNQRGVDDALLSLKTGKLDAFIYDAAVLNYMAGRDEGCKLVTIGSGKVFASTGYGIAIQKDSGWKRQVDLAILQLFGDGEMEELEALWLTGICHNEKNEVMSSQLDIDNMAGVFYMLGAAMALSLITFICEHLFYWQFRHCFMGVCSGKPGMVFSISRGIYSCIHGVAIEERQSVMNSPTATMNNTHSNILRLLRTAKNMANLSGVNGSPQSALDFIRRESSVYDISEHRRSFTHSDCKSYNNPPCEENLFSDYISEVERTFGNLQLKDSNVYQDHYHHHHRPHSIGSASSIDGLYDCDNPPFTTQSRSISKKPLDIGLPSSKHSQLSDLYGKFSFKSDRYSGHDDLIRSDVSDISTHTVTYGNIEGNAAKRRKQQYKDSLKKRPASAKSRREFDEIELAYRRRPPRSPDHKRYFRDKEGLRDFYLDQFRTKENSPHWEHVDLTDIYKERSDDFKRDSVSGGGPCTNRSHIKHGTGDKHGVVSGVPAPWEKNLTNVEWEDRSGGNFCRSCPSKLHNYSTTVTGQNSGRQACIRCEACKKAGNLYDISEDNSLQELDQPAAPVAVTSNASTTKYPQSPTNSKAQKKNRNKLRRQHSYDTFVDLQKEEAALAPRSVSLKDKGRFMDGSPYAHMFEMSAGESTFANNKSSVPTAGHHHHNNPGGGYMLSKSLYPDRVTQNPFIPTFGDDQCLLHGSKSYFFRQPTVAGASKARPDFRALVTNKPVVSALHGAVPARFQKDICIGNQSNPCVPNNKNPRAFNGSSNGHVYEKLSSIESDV

For `FC(F)(F)c1cccc(-c2cnc3cnn(Cc4cncc(Br)c4)c3c2)c1` [Example 2, 1-[(5-Bromo-3-pyridyl)methyl]-6-[3-(trifluoromethyl)phenyl]pyrazolo[4,3-b]pyridine], the IC50 worked out at 329 nM.

On to `Fc1cncc(Cn2ncc3ncc(-c4cc(F)cc(F)c4)cc32)c1` [Example 185, 6-(3,5-Difluorophenyl)-1-[(5-fluoro-3-pyridyl)methyl]pyrazolo[4,3-b]pyridine], for which the concentration for half-maximal inhibition (IC50) came out at 45 nM.

`FC(F)(F)c1cccc(-c2cnc3cnn(Cc4cccnc4)c3c2)c1` [Example 163, 1-(3-Pyridylmethyl)-6-[3-(trifluoromethyl)phenyl]pyrazolo[4,3-b]pyridine hydrochloride salt]: the IC50 is 90 nM.

As to `COc1ccc(Cn2ncc3ncc(-c4ccc(F)c(C(F)F)c4)cc32)cn1` [Example 204, 6-[3-(Difluoromethyl)-4-fluoro-phenyl]-1-[(6-methoxy-3-pyridyl)methyl]pyrazolo[4,3-b]pyridine], the IC50 worked out at 1620 nM.

In the case of `FC(F)(F)c1cccc(-c2cnc3cnn(Cc4ccc(C(F)(F)F)nc4)c3c2)c1` [Example 174, 6-[3-(Trifluoromethyl)phenyl]-1-[[6-(trifluoromethyl)-3-pyridyl]methyl]pyrazolo[4,3-b]pyridine], the 50% inhibitory concentration (IC50) is 11900 nM.

With `Cc1ccc(Cn2ncc3ncc(-c4cccc(C(F)(F)F)c4)cc32)cn1` [Example 165, 1-[(6-Methyl-3-pyridyl)methyl]-6-[3-(trifluoromethyl)phenyl]pyrazolo[4,3-b]pyridine], the half-maximal inhibitory concentration (IC50) amounted to 2170 nM.

Consider `Cc1ccc(Cn2ncc3ncc(-c4ccc(F)c(C(F)F)c4)cc32)s1` [Example 32, 6-[3-(Difluoromethyl)-4-fluoro-phenyl]-1-[(5-methyl-2-thienyl)methyl]pyrazolo[4,3-b]pyridine], for which the 50% inhibitory concentration (IC50) was more than 2990 nM.

Regarding `COc1cc(Cn2ncc3ncc(-c4ccc(F)c(OC(F)F)c4)cc32)ncn1` [Example 289, 6-[3-(Difluoromethoxy)-4-fluoro-phenyl]-1-[(6-methoxypyrimidin-4-yl)methyl]pyrazolo[4,3-b]pyridine], the IC50 stood at 350 nM.

As for `Cc1nnc(Cn2ncc3ncc(-c4ccc(C(F)F)s4)cc32)o1` [Example 79, 2-[[6-[5-(Difluoromethyl)-2-thienyl]pyrazolo[4,3-b]pyridin-1-yl]methyl]-5-methyl-1,3,4-oxadiazole], the IC50 was found to be 153 nM.

As for `Cn1ccc(Cn2ncc3ncc(-c4ccc(F)c(C(F)F)c4)cc32)n1` [Example 39, 6-[3-(Difluoromethyl)-4-fluoro-phenyl]-1-[(1-methylpyrazol-3-yl)methyl]pyrazolo[4,3-b]pyridine], the IC50 came to 271 nM.

As for `Fc1cncc(Cn2ncc3ncc(-c4ccc(F)c(OC(F)F)c4)cc32)c1` [Example 225, 6-[3-(Difluoromethoxy)-4-fluoro-phenyl]-1-[(5-fluoro-3-pyridyl)methyl]pyrazolo[4,3-b]pyridine], the half-maximal inhibitory concentration (IC50) is 39 nM.

Regarding `Cc1nnc(Cn2nc(F)c3ncc(-c4cccc(C(C)(F)F)c4)cc32)o1` [Example 83, 2-[[6-[3-(1,1-Difluoroethyl)phenyl]-3-fluoro-pyrazolo[4,3-b]pyridin-1-yl]methyl]-5-methyl-1,3,4-oxadiazole], the 50% inhibitory concentration (IC50) was 126 nM.

For the molecule `COc1ncccc1Cn1ncc2ncc(-c3cccc(C(F)(F)F)c3)cc21` [Example 172, 1-[(2-Methoxy-3-pyridyl)methyl]-6-[3-(trifluoromethyl)phenyl]pyrazolo[4,3-b]pyridine trifluoroacetate salt], the IC50 amounted to 7780 nM.

In the case of `Fc1c(-c2cnc3cnn(Cc4cncc(Cl)c4)c3c2)cccc1C(F)F` [Example 213, 1-[(5-Chloro-3-pyridyl)methyl]-6-[3-(difluoromethyl)-2-fluoro-phenyl]pyrazolo[4,3-b]pyridine], the half-maximal inhibitory concentration (IC50) worked out at 68 nM.

In the case of `FC(F)(F)c1cccc(-c2cnc3cnn(Cc4ccncc4)c3c2)c1` [Example 164, 1-(4-Pyridylmethyl)-6-[3-(trifluoromethyl)phenyl]pyrazolo[4,3-b]pyridine hydrochloride salt], the half-inhibitory concentration (IC50) was 798 nM.

With `Fc1ccc(-c2cnc3cnn(Cc4nnc(C5CC5)s4)c3c2)cc1C(F)F` [Example 130, 2-Cyclopropyl-5-[[6-[3-(difluoromethyl)-4-fluoro-phenyl]pyrazolo[4,3-b]pyridin-1-yl]methyl]-1,3,4-thiadiazole], the IC50 is 123 nM.

Turning to `Fc1ccc(-c2cnc3cnn(Cc4cccnc4)c3c2)cc1F` [Example 187, 6-(3,4-Difluorophenyl)-1-(3-pyridylmethyl)pyrazolo[4,3-b]pyridine trifluoroacetate salt], the IC50 came out at 218 nM.

Regarding `Cc1cnc(Cn2ncc3ncc(-c4ccc(F)c(C)c4)cc32)o1` [Example 49, 2-[[6-(4-Fluoro-3-methyl-phenyl)pyrazolo[4,3-b]pyridin-1-yl]methyl]-5-methyl-oxazole], the half-inhibitory concentration (IC50) amounted to 53 nM.

Take `Cc1cnc(Cn2ncc3ncc(-c4ccc(F)c(C)c4)cc32)s1` [Example 68, 2-[[6-(4-Fluoro-3-methyl-phenyl)pyrazolo[4,3-b]pyridin-1-yl]methyl]-5-methyl-thiazole]: the IC50 is 265 nM.

`Cc1nnc(Cn2ncc3ncc(-c4ccc(F)c(C(F)F)c4)cc32)[nH]1` [Example 13, 6-[3-(Difluoromethyl)-4-fluoro-phenyl]-1-[(5-methyl-4H-1,2,4-triazol-3-yl)methyl]pyrazolo[4,3-b]pyridine]: the IC50 is 1960 nM.

Turning to `Cc1noc(Cn2ncc3ncc(-c4cc(C(F)(F)F)ccc4F)cc32)n1` [Example 109, 5-[[6-[2-Fluoro-5-(trifluoromethyl)phenyl]pyrazolo[4,3-b]pyridin-1-yl]methyl]-3-methyl-1,2,4-oxadiazole], the IC50 worked out at 3260 nM.

Take `Fc1ccc(-c2cnc3cnn(Cc4cccnn4)c3c2)cc1OC(F)F` [Example 263, 6-[3-(Difluoromethoxy)-4-fluoro-phenyl]-1-(pyridazin-3-ylmethyl)pyrazolo[4,3-b]pyridine]: the 50% inhibitory concentration (IC50) is 112 nM.

Consider `FC(F)Oc1cc(-c2cnc3cnn(Cc4cccnn4)c3c2)ccc1Cl` [Example 265, 6-[4-Chloro-3-(difluoromethoxy)phenyl]-1-(pyridazin-3-ylmethyl)pyrazolo[4,3-b]pyridine], for which the IC50 was 115 nM.

Regarding `Nc1nnc(Cn2ncc3ncc(-c4ccc(F)c(C(F)F)c4)cc32)s1` [Example 16, 5-[[6-[3-(difluoromethyl)-4-fluoro-phenyl]pyrazolo[4,3-b]pyridin-1-yl]methyl]-1,3,4-thiadiazol-2-amine], the half-inhibitory concentration (IC50) amounted to 1050 nM.

`Cc1cccc(-c2cnc3cnn(Cc4ccc(F)nc4)c3c2)c1` [Example 145, 1-[(6-Fluoro-3-pyridyl)methyl]-6-(m-tolyl)pyrazolo[4,3-b]pyridine]: the IC50 stood at 36 nM.

On to `Cc1ccncc1Cn1ncc2ncc(-c3cccc(C(F)(F)F)c3)cc21` [Example 168, 1-[(4-Methyl-3-pyridyl)methyl]-6-[3-(trifluoromethyl)phenyl]pyrazolo[4,3-b]pyridine trifluoroacetate salt], for which the IC50 was found to be 161 nM.

Turning to `Fc1cc(F)cc(Cn2ncc3ncc(-c4ccc(F)c(OC(F)F)c4)cc32)c1` [Example 30, 6-[3-(Difluoromethoxy)-4-fluoro-phenyl]-1-[(3,5-difluorophenyl)methyl]pyrazolo[4,3-b]pyridine], the IC50 was 536 nM.

`Cc1nnc(Cn2ncc3ncc(-c4ccc(F)c(OC(F)F)c4)cc32)s1` [Example 133, 2-[[6-[3-(Difluoromethoxy)-4-fluoro-phenyl]pyrazolo[4,3-b]pyridin-1-yl]methyl]-5-methyl-1,3,4-thiadiazole]: the IC50 was determined as 72 nM.

Turning to `Cc1nnc(Cn2nc(F)c3ncc(-c4ccc(F)c(C)c4)cc32)o1` [Example 90, 2-[[3-Fluoro-6-(4-fluoro-3-methyl-phenyl)pyrazolo[4,3-b]pyridin-1-yl]methyl]-5-methyl-1,3,4-oxadiazole], the half-maximal inhibitory concentration (IC50) stood at 33 nM.

As for `Cc1cc(Cn2ncc3ncc(-c4ccc(F)c(C(C)(F)F)c4)cc32)no1` [Example 58, 3-[[6-[3-(1,1-Difluoroethyl)-4-fluoro-phenyl]pyrazolo[4,3-b]pyridin-1-yl]methyl]-5-methyl-isoxazole], the concentration for half-maximal inhibition (IC50) was determined as 158 nM.

With `Cc1nc(Cn2ncc3ncc(-c4ccc(F)c(OC(F)F)c4)cc32)no1` [Example 114, 3-[[6-[3-(Difluoromethoxy)-4-fluoro-phenyl]pyrazolo[4,3-b]pyridin-1-yl]methyl]-5-methyl-1,2,4-oxadiazole], the concentration for half-maximal inhibition (IC50) was 279 nM.

As for `N#Cc1cncc(Cn2ncc3ncc(-c4ccc(F)c(C(F)F)c4)cc32)c1` [Example 203, 5-[[6-[3-(Difluoromethyl)-4-fluoro-phenyl]pyrazolo[4,3-b]pyridin-1-yl]methyl]pyridine-3-carbonitrile], the concentration for half-maximal inhibition (IC50) came to 31 nM.

The record behind these values is patent US11530210B2, “Substituted heteroaromatic pyrazolo-pyridines and their use as GLUN2B receptor modulators” (JANSSEN PHARMACEUTICA NV, priority 2019, dated 2022).
